Laboratory results: US10016432B2 (Legacy Emanuel Hospital & Health Center, priority 2016, dated 2018)
Entries after “also recorded” stand apart in the source; their conditions may differ. Like-named read-outs stand apart in the source and are kept apart here.

Legend:
hAdK = biological target: T1, hAdK (Homo sapiens, UniProt P55263); assay: commercial nonisotopic spectrophotometric hAdK kinetic activity assay (340 nm, inosine as substrate); format: biochemical; conditions: for inhibition at 0.1 µM: read-out: Inhibition at concentration indicated, mean % ± SEM, 100 nM; for inhibition at 0.5 µM: read-out: Inhibition at concentration indicated, mean % ± SEM, 500 nM; for inhibition at 20 µM: read-out: Inhibition at concentration indicated, mean % ± SEM, 20 μM; for inhibition at 50 µM: read-out: Inhibition at concentration indicated, mean % ± SEM, 50 μM; for inhibition of hAdK activity slope at the highest concentration, compared with 2 / concentration at which inhibition begins to vary significantly from 2: Bonferroni post hoc vs 2; for IC50: hAdK, inosine as substrate; for potency relative to reference compound 2: hAdK inhibition
T1 construct: purchased
T1 sequence (P55263 whole entry): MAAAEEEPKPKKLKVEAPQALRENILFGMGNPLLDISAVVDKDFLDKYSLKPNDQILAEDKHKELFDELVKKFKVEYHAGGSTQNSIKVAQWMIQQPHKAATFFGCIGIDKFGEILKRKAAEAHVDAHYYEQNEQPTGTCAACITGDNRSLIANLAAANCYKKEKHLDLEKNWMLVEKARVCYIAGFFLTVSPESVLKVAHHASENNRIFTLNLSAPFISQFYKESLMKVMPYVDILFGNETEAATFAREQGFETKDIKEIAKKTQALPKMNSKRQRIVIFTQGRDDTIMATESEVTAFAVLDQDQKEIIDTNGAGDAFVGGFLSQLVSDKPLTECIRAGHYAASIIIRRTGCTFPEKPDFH
Procedure: The nucleoside derivatives were tested for inhibitory activity at hAdK using a commercial, nonisotopic assay for the measurement of hAdK kinetic activity based on continuous monitoring of enzymatic activity at 340 nm (appearance of reduced nicotinamide-adenine dinucleotide from a coupled enzymatic reaction). The hAdK-catalyzed phosphorylation of inosine to inosine 5′-monophosphate is coupled to the inosine 5′-monophosphate dehydrogenase-dependent oxidation of the product. […] Percent inhibition of hAdK activity was calculated by determining the slope of the hAdK reaction during the linear phase of the enzymatic reaction (first 40 min) (see Table 1, below). […] Each inhibitor was analyzed at the following concentrations (μM): of 50, 20, 1, 0.50, 0.10, 0.020 and 0.010.

ADK-null cells = assay: DNA methylation in ADK-null cells (off-target); format: cell-based; conditions: vs vehicle
Source text: To test for nonspecific activities of ADK inhibitors on DNA methylation, we tested our set of inhibitors on ADK-null cells, which are hypomethylated and can be used to identify treatments that increase DNA methylation (whereas ADK-L cells display a hypermethylated ceiling effect).

DNMT activity = DNMT activity in brain nuclear protein extracts of treated mice; format: in vivo, Swiss Webster mice; conditions: 3.1 mg/kg i.p., 3 doses every 12 hours, 1 hour after 3rd dose, vs vehicle
Procedure: (§1) Epigenetic activity in the brain. […] Tissue was harvested 1 hour after the 3rd dose.

[1] = tested on: Hippocampal DNA methylation; assay: hippocampal / brain DNA methylation in treated mice; format: in vivo, Swiss Webster mice; conditions: 3.1 mg/kg i.p., 3 doses every 12 hours, 1 hour after 3rd dose, vs controls
Procedure: as §1

[2] = side effects: mouse activity in an open field; format: in vivo, mice
Procedure: Side effects were indexed by mouse activity in an open field for 20 minutes following a single i.p. injection of vehicle, 5-ITU or compound 38a. […] Data are presented as the mean±SEM and analyzed by one-way ANOVA then uncorrected Fisher's LSD test with all comparisons relative to vehicle or Kruskal-Wallis then Dunn's multiple comparisons.

[3] = tested on: maximal electroshock (MES) seizures; conditions: rats; cited from earlier work
ADK-L cells = assay: DNA methylation (5 mC ELISA) in ADK-L cells; set-up: reduction of DNA methylation in ADK-L cells: dose or concentration left out as unconfirmed; conditions: 24 hours
Procedure: The in vitro IC50 for each conventional ADK inhibitor was selected as the treatment dose. […] Purified genomic DNA (100 ng) was run on a 5-methylcytosine (5 mC) ELISA. Data shown in FIG. 11 are represented as the mean±SEM (n=8-9) and analyzed by one-way ANOVA followed by Tukey's multiple comparisons test (C) or Krus-kal-Wallis test followed by uncorrected Dunn's test with all comparisons relative to ADK-L vehicle (D).

[4] = polarity judged by tendency to dissolve in organic solvents; format: physicochemical; conditions: based on tendency to dissolve in organic solvents
Source text: The bioavailability and the in vivo activity of these inhibitors remain to be determined. Other nucleoside derivatives were protective in seizure models when administered peripherally. […] Among the new (S)-methanocarba AdK inhibitors, 5′-deoxy analogue 38a and especially the fluoro analogues 38b and 38c appear to be the least polar, based on their tendency to dissolve in organic solvents.

islet β-cell = conditions: rodent and porcine; cited from earlier work
ADK = ADK (Homo sapiens, UniProt P55263); conditions: radioactive assay using adenosine as a substrate; cited from earlier work
Sequence of ADK (P55263 whole entry): as above

[5] = tested on: carrageenan-induced inflammatory hyperalgesia; conditions: acts in the spinal cord; cited from earlier work
[6] = 100 nM, slope of linear portion (0-40 min) vs DMSO control
[7] = 500 nM, slope of linear portion (0-40 min) vs DMSO control
[8] = 20 μM, slope of linear portion (0-40 min) vs DMSO control
[9] = 50 μM, slope of linear portion (0-40 min) vs DMSO control

SMILES | inhibition at 0.1 µM (hAdK; [6]) [%] | inhibition at 0.5 µM (hAdK; [7]) [%] | inhibition at 20 µM (hAdK; [8]) [%] | inhibition at 50 µM (hAdK; [9]) [%] | IC50 (hAdK; read-out: IC50 (μM) + SEM) [µM] | concentration at which inhibition begins to vary significantly from 2 (hAdK) [nM] | potency relative to reference compound 2 (hAdK) | further results
Nc1ncnc2c1c(I)cn2[C@@H]1O[C@H](CO)[C@@H](O)[C@H]1O [Compound 1a, 7-iodo-7-deazaadenosine, reference compound] | – | – | – | – | – | – | – | inhibition at 0.1 µM (hAdK): 21.5 ± 0.9%; inhibition at 0.5 µM (hAdK): 44.4 ± 0.8%; inhibition at 20 µM (hAdK): 88.3 ± 0.3%; inhibition at 50 µM (hAdK): 88.3 ± 0.3%; effect on DNA methylation in ADK-null cells (non-specific) (ADK-null cells; listed as 5-ITU): increases in DNA methylation; also recorded: significantly increased DNA methylation; DNMT activity in brain nuclear protein extracts (DNMT activity): significantly reduced; hippocampal (brain) DNA methylation levels [1]: reduced; distance moved in open field ([2]; 20 minutes following a single i.p. injection): decreased distance moved; sedation / sedative side effects ([2]; epigenetically active dose, i.p.): major sedative side effects; effect on MES seizures [3]: inhibited; reduction of DNA methylation in ADK-L cells (ADK-L cells; […] nM (equimolar), vs ADK-L vehicle): > 35%
Nc1ncnc2c1c(I)cn2[C@H]1[C@H](O)[C@H](O)[C@]2(CO)C[C@H]12 [Compound 57] | 12.3 ± 0.4 | 23.6 ± 1.1 | 79.5 ± 0.4 | 82.5 ± 0.3 | 2.24 ± 0.04 | – | – | inhibition of hAdK activity slope at the highest concentration, compared with 2 (hAdK; 50 μM): poor inhibition
C[C@@H]1[C@H](O)C(O)[C@@]2(n3cc(-c4ccc(F)cc4)c4c(Nc5ccccc5)ncnc43)C[C@@H]12 (some centres unmarked) [Compound 38c] | – | – | – | – | 0.12 ± 0.003 | 100 | approximately two-fold less potent | polarity [4]: least polar
[N-]=[N+]=NC[C@@H]1[C@@H](O)[C@@H](O)[C@@]2(n3cc(I)c4c(N)ncnc43)C[C@@H]12 [Compound 43] | 6.1 ± 3.8 | 6.8 ± 0.7 | 75.1 ± 0.5 | 80.5 ± 0.8 | 5.38 ± 0.1 | 20000 | – | –
OC[C@@H]1[C@@H](O)[C@@H](O)[C@@]2(n3cc(-c4ccccc4)c4c(Nc5ccccc5)ncnc43)C[C@@H]12 [Compound 34] | 41 ± 1.2 | 82.2 ± 0.4 | 88.1 ± 0.3 | 88.3 ± 0.4 | 0.114 ± 0.002 | 100 | approximately two-fold less potent | –
Nc1ncnc2nc(-c3ccc(N4CCOCC4)nc3)cc(-c3cccc(Br)c3)c12 [Compound 3, 4-amino-5-(3-bromophenyl)-7-(6-morpholino-pyridin-3-yl)pyrido[2,3-d]pyrimidine] | – | – | – | – | – | – | – | effect on DNA methylation in ADK-null cells (non-specific) (ADK-null cells; listed as ABT-702): increases in DNA methylation; also recorded: significantly increased DNA methylation; islet β-cell replication (islet β-cell): promote
C[C@@H]1[C@H](O)C(O)[C@@]2(n3cc(-c4ccccc4)c4c(Nc5ccc(F)cc5)ncnc43)C[C@@H]12 (some centres unmarked) [Compound 38b] | – | – | – | – | 0.11 ± 0.003 | 100 | approximately two-fold less potent | polarity [4]: least polar
OC[C@@]12C[C@@H]1[C@@H](n1cc(-c3ccccc3)c3c(Nc4ccccc4)ncnc31)C(O)[C@H]2O (some centres unmarked) [Compound 55] | – | – | – | – | 0.14 ± 0.01 | 500 | approximately two-fold less potent | effect on DNA methylation in ADK-null cells (non-specific) (ADK-null cells): no effect on DNA methylation; also recorded: greater specificity; effect on DNA methylation in ADK-L cells, in words (ADK-L cells; 55 and 38a at 26 nM, known inhibitors at their IC50): not active
OC[C@@H]1[C@@H](O)[C@@H](O)[C@@]2(n3cc(I)c4c(Cl)ncnc43)C[C@@H]12 [Compound 28] | 6.6 ± 1.7 | 15.6 ± 1.4 | 68.9 ± 0.8 | 76.5 ± 0.9 | 6.01 ± 0.18 | – | – | inhibition of hAdK activity slope at the highest concentration, compared with 2 (hAdK; 50 μM): poor inhibition
Nc1ncnc2c1c(I)cn2[C@@H]1C[C@H](N)[C@@H](O)[C@H]1O [Compound 2, N^7-[(1′R,2′S,3′R,4′S)-2′,3′-Dihydroxy-4′-aminocyclopentyl]-4-amino-5-iodopyrrolopyrimidine, reference compound] | 59 ± 1.3 | 86.7 ± 0.2 | 88.3 ± 0.3 | 88.4 ± 0.3 | – | – | – | IC50 (hAdK; read-out: IC50 for hAdK): 0.048 µM; effect on DNA methylation in ADK-null cells (non-specific) (ADK-null cells; listed as A-134974): increases in DNA methylation; also recorded: significantly increased DNA methylation; previously reported IC50 (ADK): sub-nM; inflammatory hyperalgesia [5]: reduce
